The source of these data is ChEMBL document CHEMBL1201862, “PubChem BioAssay data set” (2004).

Test systems include Hs-578T; NCI-H460; MDA-MB-435; U-251; SN12C; KM12; NCI-H522; NCI/ADR-RES; EKVX; SF-295; MCF7; HOP-92; BT-549; DU-145; TK-10; SNB-75; HL-60; IGROV-1; HT-29.
What all share (assay): NCI tumour cell line growth inhibition, 48 h

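Results reflect a 48-hour exposure of cells in 96-well plates to compound at five concentrations. GI50 = concentration required for 50% inhibition of growth.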 Calls of active or inactive are those of the source. No stated cut-off is given here; in the data, active = GI50 up to about 1.1 µM and inactive = higher. Where only a bound is given, the exact number is not on record here.

Regarding `CC(=O)Nc1sccc1S(=O)(=O)c1ccc(Cl)cc1`, the GI50 in the experiment with Hs-578T, in the experiment with NCI-H460, in the experiment with MDA-MB-435, in the experiment on U-251, with SN12C and in the experiment on KM12 was > 100 µM (inactive) each time. Also, the GI50 in the experiment with NCI-H522, in the experiment on NCI/ADR-RES, with EKVX, with SF-295, in the experiment on MCF7 and in the experiment with HOP-92 was > 100 µM (inactive) throughout. Further, the GI50 in the experiment with BT-549 is > 100 µM (inactive); with DU-145 it was > 100 µM (inactive); in the experiment on TK-10 it was > 100 µM (inactive); in the experiment on SNB-75 it was 55.6 µM (inactive); with HL-60 it was > 100 µM (inactive); in the experiment with IGROV-1, > 100 µM (inactive). Also, the GI50 in the experiment with HT-29 is > 100 µM (inactive).

In the case of `CCOC(=O)c1c2c(n(Cc3ccccc3)c1C)C(=O)C(=O)c1ccccc1-2`, the GI50 in the experiment with Hs-578T was 0.925 µM (active); in the experiment with NCI-H460, 0.418 µM (active); in the experiment with MDA-MB-435, 0.0612 µM (active); in the experiment on U-251 it was 0.263 µM (active); with SN12C it was 0.171 µM (active); with KM12, 0.574 µM (active). Moreover, the GI50 with NCI-H522 was 0.778 µM (active); with NCI/ADR-RES, 0.466 µM (active); in the experiment on EKVX, 0.726 µM (active); in the experiment with SF-295, 0.497 µM (active); in the experiment on MCF7, 0.293 µM (active); in the experiment on HOP-92, 0.802 µM (active). Besides, the GI50 is 0.337 µM (active) in the experiment with BT-549; 0.465 µM (active) in the experiment on DU-145; 0.64 µM (active) in the experiment with TK-10; 0.309 µM (active) in the experiment with SNB-75; 0.0129 µM (active) in the experiment on HL-60; 1.15 µM (inactive) in the experiment on IGROV-1. Besides, in the experiment on HT-29, the GI50 is 0.989 µM (active).

Regarding `COc1ccc(C(=O)N2CCN(c3ccc4c(c3)OCC(=O)N4)CC2)cc1`, the GI50 in the experiment with Hs-578T, in the experiment with NCI-H460, with MDA-MB-435, in the experiment with U-251, with SN12C and in the experiment on KM12 was > 100 µM (inactive) in each case. Further, the GI50 in the experiment on NCI-H522 is 95.9 µM (inactive); with NCI/ADR-RES it was > 100 µM (inactive); in the experiment on EKVX, 94 µM (inactive); with SF-295 it was > 100 µM (inactive); in the experiment on MCF7, > 100 µM (inactive); in the experiment with HOP-92 it was > 100 µM (inactive). The GI50 in the experiment with BT-549 was > 100 µM (inactive); in the experiment with DU-145 it was > 100 µM (inactive); with TK-10, > 100 µM (inactive); with SNB-75, > 100 µM (inactive); in the experiment with HL-60, 64.6 µM (inactive); in the experiment with IGROV-1, > 100 µM (inactive). Further, in the experiment with HT-29, the GI50 is > 100 µM (inactive).

Take `CCC(CCCC[C@H]1CC[C@@H]2CC(=O)C[C@H]12)OC` (stereo not given in full): the GI50 with Hs-578T, with NCI-H460, in the experiment on MDA-MB-435, in the experiment on U-251, in the experiment with SN12C and with KM12 was > 100 µM (inactive) in each case. In addition, the GI50 with NCI-H522 was > 100 µM (inactive); in the experiment with NCI/ADR-RES it was 66.5 µM (inactive); in the experiment on EKVX it was 59 µM (inactive); in the experiment with SF-295, > 100 µM (inactive); with MCF7 it was > 100 µM (inactive); in the experiment with HOP-92 it was > 100 µM (inactive). For the same compound, the GI50 was 50.7 µM (inactive) in the experiment with BT-549; > 100 µM (inactive) in the experiment with DU-145; > 100 µM (inactive) in the experiment on TK-10; 59 µM (inactive) in the experiment with SNB-75; 39.5 µM (inactive) in the experiment with HL-60; > 100 µM (inactive) with IGROV-1. Moreover, the GI50 in the experiment with HT-29 is > 100 µM (inactive).

As to `Cc1cnc2c(c1)C(=O)N(c1ccc([N+](=O)[O-])cc1)S2(=O)=O`, the GI50 in the experiment with Hs-578T is 38.1 µM (inactive); with NCI-H460, > 100 µM (inactive); with MDA-MB-435, 70.5 µM (inactive); in the experiment with U-251 it was 67.1 µM (inactive); with SN12C, > 100 µM (inactive); with KM12, > 100 µM (inactive). Besides, the GI50 was 25.1 µM (inactive) in the experiment with NCI-H522; 74.3 µM (inactive) in the experiment with NCI/ADR-RES; > 100 µM (inactive) in the experiment on EKVX; 82.8 µM (inactive) in the experiment with SF-295; > 100 µM (inactive) with MCF7; > 100 µM (inactive) with HOP-92. Besides, the GI50 with BT-549 is 36.1 µM (inactive); in the experiment on DU-145 it was > 100 µM (inactive); in the experiment with TK-10, > 100 µM (inactive); in the experiment on SNB-75 it was 61.1 µM (inactive); in the experiment on HL-60 it was 28.2 µM (inactive); with IGROV-1 it was 30.3 µM (inactive). Further, the GI50 in the experiment on HT-29 is > 100 µM (inactive).

For `NC1=Nc2ccccc2Sc2nccn21`, the GI50 with Hs-578T was 25.3 µM (inactive); in the experiment with NCI-H460, 31 µM (inactive); in the experiment with MDA-MB-435 it was 23.7 µM (inactive); in the experiment on U-251 it was 32.8 µM (inactive); in the experiment with SN12C, 36.3 µM (inactive); with KM12, 24.2 µM (inactive). The GI50 in the experiment with NCI-H522 was 19.3 µM (inactive); in the experiment on NCI/ADR-RES, 30.5 µM (inactive); in the experiment on EKVX, 27.7 µM (inactive); in the experiment on SF-295, 22.3 µM (inactive); in the experiment with MCF7 it was 44.3 µM (inactive); with HOP-92, 15.1 µM (inactive). In addition, the GI50 is 54.3 µM (inactive) with BT-549; 37.7 µM (inactive) with DU-145; 30.6 µM (inactive) in the experiment with TK-10; 17.9 µM (inactive) in the experiment with SNB-75; 18.7 µM (inactive) with HL-60; 23.9 µM (inactive) in the experiment on IGROV-1. In the experiment with HT-29, the GI50 was 23 µM (inactive).

For `COC(=O)C1(O)c2ccccc2N=C2C(=O)c3ccccc3N21` (stereo not given) [METHYLISATOID], the GI50 in the experiment on Hs-578T is > 100 µM (inactive); in the experiment on NCI-H460, > 100 µM (inactive); with MDA-MB-435, 12.2 µM (inactive); in the experiment with U-251, > 100 µM (inactive); in the experiment on SN12C, > 100 µM (inactive); in the experiment on KM12 it was > 100 µM (inactive). Also, the GI50 with NCI-H522, in the experiment with NCI/ADR-RES, with EKVX, with SF-295, with MCF7 and in the experiment with HOP-92 was > 100 µM (inactive) throughout. The GI50 in the experiment with BT-549, with DU-145, in the experiment on TK-10, with SNB-75, in the experiment on HL-60 and in the experiment with IGROV-1 was > 100 µM (inactive) in each case. Moreover, the GI50 in the experiment with HT-29 is > 100 µM (inactive).

On to `Cn1c(=O)c2nc(CCS)[nH]c2n(C)c1=O`, for which the GI50 was 31.4 µM (inactive) with Hs-578T; > 100 µM (inactive) with NCI-H460; > 100 µM (inactive) with MDA-MB-435; > 100 µM (inactive) in the experiment with U-251; > 100 µM (inactive) in the experiment on SN12C; > 100 µM (inactive) with KM12. Further, the GI50 in the experiment on NCI-H522, in the experiment on NCI/ADR-RES, with EKVX, in the experiment with SF-295, in the experiment with MCF7 and in the experiment with HOP-92 was > 100 µM (inactive) each time. The GI50 is > 100 µM (inactive) in the experiment on BT-549; > 100 µM (inactive) with DU-145; 50.2 µM (inactive) with TK-10; 18.3 µM (inactive) with SNB-75; > 100 µM (inactive) in the experiment with HL-60; > 100 µM (inactive) in the experiment on IGROV-1. Moreover, the GI50 in the experiment on HT-29 was > 100 µM (inactive).

Take `CC(C)NC1(C(N)=O)CCN(Cc2ccccc2)CC1`: the GI50 with Hs-578T, in the experiment on NCI-H460, with MDA-MB-435, with U-251, in the experiment with SN12C and with KM12 was > 100 µM (inactive) throughout. Moreover, the GI50 with NCI-H522, in the experiment with NCI/ADR-RES, in the experiment with EKVX, with SF-295, with MCF7 and in the experiment on HOP-92 was > 100 µM (inactive) throughout. In addition, the GI50 in the experiment on BT-549, in the experiment on DU-145, with TK-10, in the experiment on SNB-75, in the experiment with HL-60 and with IGROV-1 was > 100 µM (inactive) in each case. The GI50 in the experiment on HT-29 is > 100 µM (inactive).

With `C=CC1C(OC2OC(CO)C(O)C(O)C2O)OC=C(C(=O)OC)C1CC1CC(=O)CC(CCc2ccc(O)cc2)O1` (stereo not given), the GI50 with Hs-578T, in the experiment with NCI-H460, in the experiment on MDA-MB-435, in the experiment with U-251, in the experiment with SN12C and in the experiment on KM12 was > 100 µM (inactive) each time. Further, the GI50 with NCI-H522, in the experiment on NCI/ADR-RES, in the experiment with EKVX, in the experiment with SF-295, in the experiment with MCF7 and with HOP-92 was > 100 µM (inactive) throughout. The GI50 in the experiment on BT-549, in the experiment on DU-145, in the experiment with TK-10, in the experiment with SNB-75, in the experiment with HL-60 and in the experiment with IGROV-1 was > 100 µM (inactive) each time. Also, the GI50 in the experiment on HT-29 was > 100 µM (inactive).
